Data set [1] can be described thus: (§1) Inhibition of replicating Mycobacterium tuberculosis H37Rv NDH assessed as cell growth inhibition after 7 days by MABA method. Conditions: 168 h. (In general: The colour change of resazurin is a common sign of viable cells or microbes.)
In data set [2] the test system is Mycobacterium tuberculosis H37Rv. The data set is described as §1.
The test system of data set [3] is HepG2. Put plainly: Cytotoxicity against human HepG2 cells after 24 hrs in presence of glucose by MTT assay. In kind it is cell-based. The note with it: hepg2, 24 h.
The nature of data set [4]: Metabolic stability in human liver microsomes assessed as half life for metabolic turnover at 0.1 to 10 uM preincubated for 60 mins in presence of NADPH measured up to 60 mins by mass spectroscopic analysis. In kind it is ADME, microsome. On the technique in general: Microsomes from liver hold many membrane-bound enzymes, among them those of drug oxidation.
Data set [5] can be described thus: Metabolic stability in mouse liver microsomes assessed as half life for metabolic turnover at 0.1 to 10 uM preincubated for 60 mins in presence of NADPH measured up to 60 mins by mass spectroscopic analysis. The data set is classed as ADME, microsome.
Data set [6] can be described thus: Metabolic stability in rat liver microsomes assessed as half life for metabolic turnover at 0.1 to 10 uM preincubated for 60 mins in presence of NADPH measured up to 60 mins by mass spectroscopic analysis. In kind it is ADME, microsome.
Data set [7] is described as follows: Solubility of compound at pH 1. In kind it is physicochemical. The note with it: buffer.
Data set [8] in a line: Apparent permeability across apical to basolateral side in human Caco2 cells at 5 uM measured up to 180 mins by LC-MS/MS analysis. In kind it is ADME, cell-based. Conditions: Caco-2. (In general: Passage across Caco-2 layers is used to estimate intestinal permeability.)
Data set [9] is described as follows: Half life in rat plasma at 1 uM measured up to 3 hrs by LC-MS/MS analysis. In kind it is ADME, cell-free.
Data set [10] in a line: Half life in human plasma at 1 uM measured up to 3 hrs by LC-MS/MS analysis. The data set is classed as ADME, cell-free.
A short description of data set [11]: Protein binding in human plasma at 1 uM after 18 hrs by equilibrium dialysis. In kind it is ADME, cell-free. Conditions: read-out: PPB (converted).
Data set [12] is described as follows: Solubility of compound at pH 7.4. In kind it is physicochemical. Conditions: buffer.
Data set [13] can be described thus: Solubility of compound in Middlebrook 7H9 broth media containing 10% albumin-dextrose-catalase solution. In kind it is physicochemical.
Data set [14] can be described thus: Aqueous solubility of compound. Conditions: buffer. In kind it is physicochemical.
A short description of data set [15]: Intrinsic clearance in human microsomes. The data set is classed as ADME, Microsome. Conditions: read-out: CLH.
A short description of data set [16]: Intrinsic clearance in rat hepatocytes assessed per million cells. In kind it is ADME, cell-based, Hepatocyte. Conditions: read-out: CLH.
The test system of data set [17] is Mycobacterium tuberculosis. Description: Growth inhibition of dormant Mycobacterium tuberculosis H37Rv incubated for 7 days under anaerobic condition followed incubation under aerobic condition for 7 days by MABA. In kind it is functional. The note with it: 168 h.
Data set [18] is described as follows: Intrinsic clearance in mouse microsomes. The data set is classed as ADME, Microsome. The note with it: read-out: CLH.
The nature of data set [19]: Intrinsic clearance in rat microsomes. The data set is classed as ADME, Microsome. The note with it: read-out: CLH.
Data set [20] in a line: Apparent permeability across basolateral to apical side in human Caco2 cells at 5 uM measured up to 180 mins by LC-MS/MS analysis. The note with it: Caco-2. The data set is classed as ADME, cell-based.
Data set [21] addresses T1, CYP2C8 (Homo sapiens, UniProt P10632).
T1 sequence (P10632 whole entry): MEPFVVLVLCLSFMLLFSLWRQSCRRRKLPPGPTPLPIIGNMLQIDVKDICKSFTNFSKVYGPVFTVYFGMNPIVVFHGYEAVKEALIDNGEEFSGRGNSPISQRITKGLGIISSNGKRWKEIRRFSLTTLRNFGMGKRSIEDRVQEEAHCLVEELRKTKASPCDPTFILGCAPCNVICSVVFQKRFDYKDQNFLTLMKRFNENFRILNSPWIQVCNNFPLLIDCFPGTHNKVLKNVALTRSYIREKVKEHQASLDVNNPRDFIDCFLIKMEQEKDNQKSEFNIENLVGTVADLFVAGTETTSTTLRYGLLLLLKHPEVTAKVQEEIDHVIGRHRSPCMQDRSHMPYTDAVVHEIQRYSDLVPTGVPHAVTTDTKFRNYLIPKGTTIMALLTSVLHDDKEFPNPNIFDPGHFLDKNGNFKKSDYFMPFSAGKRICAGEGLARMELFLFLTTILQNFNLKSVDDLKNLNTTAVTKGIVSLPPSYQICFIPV
Description: Inhibition of human microsomal CYP2C8 expressed in insect cells at 10 uM using DBOMF as substrate measured every minute for 1 hr by fluorescence-based assay. The note with it: probe DBOMF. The data set is classed as ADME.

Data set [22] has as its target CYP2C9 (Homo sapiens, UniProt P11712). Put plainly: Inhibition of human microsomal CYP2C9 expressed in insect cells at 10 uM using OOMR as substrate measured every minute for 1 hr by fluorescence-based assay. The data set is classed as ADME. Conditions: probe OOMR.
In data set [23] the target is CYP2D6 (Homo sapiens, UniProt P10635). Description: Inhibition of human microsomal CYP2D6 expressed in insect cells at 10 uM using MOBFC as substrate measured every minute for 1 hr by fluorescence-based assay. Conditions: probe MOBFC. In kind it is ADME.
Chain of CYP2D6 (P10635 whole entry): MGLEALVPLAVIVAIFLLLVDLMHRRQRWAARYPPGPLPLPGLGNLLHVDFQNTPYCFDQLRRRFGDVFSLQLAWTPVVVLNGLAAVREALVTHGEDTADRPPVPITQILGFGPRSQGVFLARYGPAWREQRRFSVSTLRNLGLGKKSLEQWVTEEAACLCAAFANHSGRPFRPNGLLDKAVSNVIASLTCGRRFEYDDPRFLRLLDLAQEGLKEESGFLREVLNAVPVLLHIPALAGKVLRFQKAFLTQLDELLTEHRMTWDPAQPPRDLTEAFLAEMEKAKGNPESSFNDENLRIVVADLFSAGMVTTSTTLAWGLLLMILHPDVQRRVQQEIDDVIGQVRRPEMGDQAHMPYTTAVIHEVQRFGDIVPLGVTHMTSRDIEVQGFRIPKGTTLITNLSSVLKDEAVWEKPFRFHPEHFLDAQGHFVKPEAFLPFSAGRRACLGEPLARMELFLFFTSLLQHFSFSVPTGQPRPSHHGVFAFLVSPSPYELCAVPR
Data set [24] addresses CYP3A4 (Homo sapiens, UniProt P08684). Put plainly: Inhibition of human microsomal CYP3A4 expressed in insect cells at 10 uM using BOMCC as substrate measured every minute for 1 hr by fluorescence-based assay. The data set is classed as ADME. The note with it: probe BOMCC.
The target in data set [25] is CYP3A5 (Homo sapiens, UniProt P20815). Put plainly: Inhibition of human microsomal CYP3A5 expressed in insect cells at 10 uM using BOMCC as substrate measured every minute for 1 hr by fluorescence-based assay. The data set is classed as ADME. The note with it: probe BOMCC.
Chain of CYP3A5 (P20815 whole entry): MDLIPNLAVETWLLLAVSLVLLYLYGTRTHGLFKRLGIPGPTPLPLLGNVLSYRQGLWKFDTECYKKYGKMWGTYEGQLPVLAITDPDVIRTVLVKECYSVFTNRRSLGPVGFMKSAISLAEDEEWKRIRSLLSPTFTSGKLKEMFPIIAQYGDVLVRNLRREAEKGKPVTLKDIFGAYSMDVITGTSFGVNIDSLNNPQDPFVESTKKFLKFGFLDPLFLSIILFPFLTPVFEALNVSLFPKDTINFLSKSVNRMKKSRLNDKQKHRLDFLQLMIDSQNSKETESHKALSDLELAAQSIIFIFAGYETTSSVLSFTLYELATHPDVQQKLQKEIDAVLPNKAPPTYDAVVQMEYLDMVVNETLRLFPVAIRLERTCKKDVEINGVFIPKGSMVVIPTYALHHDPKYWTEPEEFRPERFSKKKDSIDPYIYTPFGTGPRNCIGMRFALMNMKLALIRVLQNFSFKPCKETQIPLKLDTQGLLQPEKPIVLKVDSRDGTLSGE
Data set [26] addresses Voltage-gated inwardly rectifying potassium channel KCNH2 (Homo sapiens, UniProt Q12809). Put plainly: Inhibition of human ERG.
For data set [27], the system named is Salmonella typhimurium. Put plainly: Mutagenicity in Salmonella typhimurium by Ames test. The data set is classed as toxicity. The note with it: salmonella enterica subsp. enterica serovar typhimurium.
Data set [28] can be described thus: Drug level in Sprague-Dawley rat urine treated with 2-(4-(3,3-Difluoropyrrolidin-1-yl)phenyl)-5,7-difluoro-3-methylquinolin-4-yl acetate at 50 mg/kg, po via gavage up to 9 hrs by HPLC analysis. The data set is classed as ADME, organism-based. Conditions: in vivo.
The nature of data set [29]: Drug level in Sprague-Dawley rat bile treated with 2-(4-(3,3-Difluoropyrrolidin-1-yl)phenyl)-5,7-difluoro-3-methylquinolin-4-yl acetate at 50 mg/kg, po via gavage up to 9 hrs by HPLC analysis. The data set is classed as ADME, organism-based. Conditions: in vivo.
A short description of data set [30]: Retention time of compound by HPLC anlaysis.
Data set [31] is described as follows: Inhibition of Mycobacterium tuberculosis NDH by HTS-based assay.
In data set [32] the test system is Mycobacterium tuberculosis. Description: Growth inhibition of replicating Mycobacterium tuberculosis H37Rv at 5 uM after 7 days by MABA method relative to control. The data set is classed as functional. The note with it: 168 h, read-out: GI.

In brackets after ≈: the same amount, converted by molar mass. Some results are limits rather than exact numbers.

By IC50 is commonly meant the point on the concentration scale where inhibition reaches its midpoint. The term IC90 denotes the point of the concentration-response curve where the effect stands at 90%. The half-life is the time needed for the level to fall by half in the phase considered. As a reminder, the solubility is the concentration that dissolves in the medium under given conditions. Read a low solubility as a poorly soluble substance. Usually Papp A→B stands for how fast a substance crosses the layer from the apical side. In general, Papp B→A refers to how fast a substance crosses the layer from the basolateral side. By inhibition is commonly meant the percentage by which the read-out fell short of the control.

Chain of CYP3A4 (P08684 whole entry): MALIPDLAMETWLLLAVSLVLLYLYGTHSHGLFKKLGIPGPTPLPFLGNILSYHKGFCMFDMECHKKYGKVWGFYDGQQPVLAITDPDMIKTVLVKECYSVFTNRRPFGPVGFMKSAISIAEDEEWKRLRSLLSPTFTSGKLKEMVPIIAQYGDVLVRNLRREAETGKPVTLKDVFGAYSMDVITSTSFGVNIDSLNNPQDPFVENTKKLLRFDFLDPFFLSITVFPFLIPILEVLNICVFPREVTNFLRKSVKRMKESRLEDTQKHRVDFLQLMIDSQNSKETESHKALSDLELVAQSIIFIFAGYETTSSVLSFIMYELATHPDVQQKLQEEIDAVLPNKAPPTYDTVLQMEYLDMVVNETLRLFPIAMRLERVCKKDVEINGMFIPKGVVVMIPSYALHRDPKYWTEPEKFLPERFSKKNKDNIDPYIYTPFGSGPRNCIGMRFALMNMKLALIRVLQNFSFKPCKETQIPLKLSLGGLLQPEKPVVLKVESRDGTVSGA
Chain of CYP2C9 (P11712 whole entry): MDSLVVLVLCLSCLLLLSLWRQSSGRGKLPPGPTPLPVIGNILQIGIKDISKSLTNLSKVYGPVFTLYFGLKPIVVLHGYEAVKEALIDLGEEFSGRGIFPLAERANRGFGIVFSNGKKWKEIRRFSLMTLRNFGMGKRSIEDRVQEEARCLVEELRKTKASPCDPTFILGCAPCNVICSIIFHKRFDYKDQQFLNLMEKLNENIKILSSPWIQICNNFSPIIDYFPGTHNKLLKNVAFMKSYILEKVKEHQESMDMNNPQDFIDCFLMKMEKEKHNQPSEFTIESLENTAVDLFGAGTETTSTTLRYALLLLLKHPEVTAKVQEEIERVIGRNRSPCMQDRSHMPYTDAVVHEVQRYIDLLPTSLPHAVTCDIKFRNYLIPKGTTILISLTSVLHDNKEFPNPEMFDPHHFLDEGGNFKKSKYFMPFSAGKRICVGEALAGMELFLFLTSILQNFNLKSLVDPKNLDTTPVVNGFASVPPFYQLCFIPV
Chain of Voltage-gated inwardly rectifying potassium channel KCNH2 (Q12809 whole entry): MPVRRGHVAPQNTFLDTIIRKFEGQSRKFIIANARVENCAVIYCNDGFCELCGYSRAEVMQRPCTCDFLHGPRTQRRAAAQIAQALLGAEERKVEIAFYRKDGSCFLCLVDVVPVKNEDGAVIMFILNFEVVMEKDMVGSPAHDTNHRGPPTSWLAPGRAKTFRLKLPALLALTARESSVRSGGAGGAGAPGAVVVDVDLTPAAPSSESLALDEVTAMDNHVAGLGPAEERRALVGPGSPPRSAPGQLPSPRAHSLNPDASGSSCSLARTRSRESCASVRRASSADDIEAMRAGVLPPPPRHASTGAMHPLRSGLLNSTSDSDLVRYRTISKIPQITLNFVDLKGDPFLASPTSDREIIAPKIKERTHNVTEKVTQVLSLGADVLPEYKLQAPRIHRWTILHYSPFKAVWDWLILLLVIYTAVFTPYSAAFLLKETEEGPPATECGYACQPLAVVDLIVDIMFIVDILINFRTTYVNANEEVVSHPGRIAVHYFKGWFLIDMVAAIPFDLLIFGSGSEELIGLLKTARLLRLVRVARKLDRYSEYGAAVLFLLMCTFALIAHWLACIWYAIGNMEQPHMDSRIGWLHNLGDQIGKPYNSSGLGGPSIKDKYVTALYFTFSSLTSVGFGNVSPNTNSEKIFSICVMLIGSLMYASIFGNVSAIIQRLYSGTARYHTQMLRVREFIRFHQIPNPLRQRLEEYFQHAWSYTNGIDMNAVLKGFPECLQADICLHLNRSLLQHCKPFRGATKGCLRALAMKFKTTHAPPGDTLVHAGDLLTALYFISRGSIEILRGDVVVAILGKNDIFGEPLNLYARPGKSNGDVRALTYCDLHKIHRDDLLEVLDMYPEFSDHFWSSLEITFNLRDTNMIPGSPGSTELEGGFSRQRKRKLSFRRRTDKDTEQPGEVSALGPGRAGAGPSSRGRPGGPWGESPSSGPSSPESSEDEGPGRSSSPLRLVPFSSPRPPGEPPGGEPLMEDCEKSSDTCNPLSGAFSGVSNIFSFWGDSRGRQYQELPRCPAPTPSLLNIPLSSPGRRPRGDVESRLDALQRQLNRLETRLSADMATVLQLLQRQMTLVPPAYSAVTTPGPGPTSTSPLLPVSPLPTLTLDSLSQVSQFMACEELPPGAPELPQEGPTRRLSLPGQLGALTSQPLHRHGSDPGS

In the case of `Cc1c(-c2ccc(N3CCC(F)(F)C3)cc2)[nH]c2cc(F)cc(F)c2c1=O`, the results for the IC50 in data set [1] and in [26] were 525 to 530 nM and greater than 25000 nM, respectively. In addition, the IC90 was found to be 1100 nM in data set [2] and 76 nM in data set [17]. Besides, the results for the Activity in data set [3] and in data set [27] were greater than 100 µM and “Non-Toxic”, respectively. In addition, the half-life at up to 10 µM in [4] came to 1.21 h; in data set [5] it was 1.92 h; in [6] it was 1.03 h. Also, the solubility in data set [7] is less than 1 µg/mL; in data set [12], less than 1 µg/mL; in data set [13], 55 µg/mL (≈ 146 µM); in [14], 0.2 µM (≈ 0.0753 µg/mL). In addition, the Papp A→B at 3 h, 5 µM in data set [8] came to 10 ×10⁻⁶ cm/s. Further, the half-life at 1 µM in [9] and in data set [10] was greater than 3 h each time. Further, the fraction unbound at 18 h, 1 µM in data set [11] was 0.003 to 0.027. For the same molecule, the microsomal CLint in [15] was 9.52 to 89.7 µL/min/mg; in data set [18], 6.03 µL/min/mg; in data set [19] it was 11.2 µL/min/mg. In data set [16], the hepatocyte CLint turned out to be 52.2 µL/min/1e6 cells. Further, the Papp B→A at 3 h, 5 µM in data set [20] was 9.8 ×10⁻⁶ cm/s. For the same molecule, the inhibition at 1 h, 10 µM amounted to 38% in data set [21]; 0% in [22]; 0% in [23]; 0% in data set [24]; 0% in data set [25]. In addition, the Drug metabolism entry in data set [28] and in [29] was “Metabolite_Detected” throughout. The Retention time in data set [30] stood at 11.4 min.

Take `Cc1c(-c2ccc(N3CCCCC3)cc2)[nH]c2ccccc2c1=O`: the half-inhibitory concentration (IC50) in data set [1] and in data set [31] was 1500 nM each time. For the same molecule, the inhibition of growth at 5 µM in data set [32] was greater than 50%.
